Where two headings read alike, the source gives them in different places.

The term Kd denotes the constant that tells how readily two partners part at equilibrium.

Assay [1] has as its target T1, CHIKV nsP2^pro (Chikungunya virus, UniProt Q8JUX6). The settings on record: ref [18]; cited from earlier work.
Assay [2] deals with T1, CHIKV nsP2^pro. The settings on record: FRET; ref [18]; read-out: IC₅₀; cited from earlier work.
For assay [3], the target named is T1, CHIKV nsP2^pro. Conditions: fluorometry; ref [18]; cited from earlier work.
For assay [4], the target named is T1, CHIKV nsP2^pro. Conditions: MST; ref [67]; cited from earlier work.
The test system of assay [5] is Human alphaherpesvirus 1 (HSV-1). Conditions: cited from earlier work.
A further assay concerns Yellow Fever virus. Conditions: cited from earlier work.
The test system of the next assay is Dengue virus. The settings on record: cited from earlier work.
In assay [6] the target is T2, Chikungunya virus (CHIKV) nsP2 protease (Chikungunya virus).
T2 chain: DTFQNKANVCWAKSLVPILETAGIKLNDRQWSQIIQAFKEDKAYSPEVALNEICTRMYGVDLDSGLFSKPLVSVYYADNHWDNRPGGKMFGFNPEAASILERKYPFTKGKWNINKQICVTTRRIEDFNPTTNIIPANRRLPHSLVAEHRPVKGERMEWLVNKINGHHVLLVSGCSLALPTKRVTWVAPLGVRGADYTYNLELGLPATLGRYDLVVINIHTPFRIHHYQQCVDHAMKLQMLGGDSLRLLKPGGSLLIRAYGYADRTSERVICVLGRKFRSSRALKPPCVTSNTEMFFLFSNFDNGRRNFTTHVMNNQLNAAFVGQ
The assay is described as follows: BLI. Conditions: both partners purified.

`COc1ccc([C@@H]2CC(=O)c3c(O)cc(O)cc3O2)cc1O` [Hesperetin (HST), Hesperetin]: the “Inhibition Mode” value on CHIKV nsP2^pro [1] is “Noncompetitive”. Moreover, the IC50 at CHIKV nsP2^pro [2] is 2.5 ± 0.4 µM. The dissociation constant Kd on CHIKV nsP2^pro [3] is 31.6 ± 2.5 µM.
As for `COc1ccc([C@@H]2CC(=O)c3c(O)cc(O[C@@H]4O[C@H](CO[C@@H]5O[C@@H](C)[C@H](O)[C@@H](O)[C@H]5O)[C@@H](O)[C@H](O)[C@H]4O)cc3O2)cc1O` [Hesperidin (HSD), Hesperidin], the “Inhibition Mode” value on CHIKV nsP2^pro [1] is listed as “Noncompetitive”. Also, the IC50 at CHIKV nsP2^pro [2] is 7.1 ± 1.1 µM. Further, on CHIKV nsP2^pro [3], the Kd is 40.7 ± 2 µM.
On to `CC1=C(CO)C(=O)O[C@@H]([C@@H](C)[C@H]2CC[C@H]3[C@@H]4C[C@H]5O[C@]56[C@@H](O)C=CC(=O)[C@]6(C)[C@H]4CC[C@]23C)C1` [Withaferin A (WFA), Withaferin A], for which, at CHIKV nsP2^pro [4], the dissociation constant Kd is 64 µM.
For Mastoparan, the antiviral activity result in assay [5] is “antiviral activity”.
Turning to Phospholipase A2, the antiviral activity entry with Yellow Fever virus and in the assay with Dengue virus was “antiviral activity” each time.
The molecule GILGKLWEGFKSIV (Stock of 10 mM in DMSO) [pantinin-1] had a dissociation constant Kd in assay [6] of 9.29 µM.

The values above are taken from PMC13065029 (PLOS One, 2026).
